Converted amounts (≈) assume the structure as drawn. Counter-ions that a name gives are not always drawn. Like-named read-outs stand apart in the source and are kept apart here. Marks after values point to notes of the source that are not given here.
Key:
[1] = Dissolution, USP dissolution apparatus 2, 900 mL 0.0033 N hydrochloric acid, 0 rpm, 37° C.; type: physicochemical; details: for % dissolved in 900 mL 0.0033 N HCl: basic and amphoteric drugs in formulations according to the invention (Table 32), 0 rpm
Method: (§1) Testing was conducted in a dissolution medium containing 900 mL 0.0033 N hydrochloric acid (HCl) at 37° C. which discriminates better between fast dissolving formulations than more acidic dissolution media where the effect of high acid concentration tends to mask formulation effects on dissolution. 900 mL of this medium contains the absolute amount of acid estimated to be present in the gastric contents in vivo, namely 3 millimoles.
Dissolution results without stirring may be of in vivo significance in conditions where there is gut stasis or reduced gastric activity.
(§2) Testing at was conducted at a stirring speed of 30 rpm and also at 0 rpm which provides more discrimination between formulations. To achieve maximum dissolution, the stirring speed was increased to 250 rpm for 10 minutes after 20 minutes for measurements at 30 rpm, and after 60 minutes for measurements at 0 rpm.
(§3) Unless otherwise stated, drug concentrations were measured using a Varian Cary 50 UV-Vis Spectrophotometer set at an appropriate wavelength using flow through cells for automatic continuous sampling. For each drug, the optimal wavelength was selected after running UV scans in the dissolution medium.

[2] = Dissolution, USP dissolution apparatus 2, 900 mL 0.0033 N hydrochloric acid, 30 rpm, 37° C.; type: physicochemical; details: basic and amphoteric drugs in formulations according to the invention (Table 32)
Method: as §1, §2, §3
A suitable C18 column and guard column were used. Results were processed using Waters Empower software.

Solubility in water = details: for solubility: water
[3] = Effect of different alkaline agents on paracetamol absorption in vivo (5 subject crossover studies, plasma paracetamol); details: human, oral, 1000 mg, two tablets each 500 mg paracetamol, fasted, read-out: Median AUC20 (converted)
Method: In a series of multiple 5 subject crossover studies, the effect of a range of different formulations containing different alkali agents on in vivo absorption were investigated. Subjects were fasted overnight and dosed with two tablets each containing 500 mg paracetamol. Plasma levels of paracetamol were monitored for 8 hours, with 10 samples taken in the first hour.

[4] = pH modulating agent: Bicarb + acid, 300 sec (Table 33)
[5] = pH modulating agent: Bicarb + acid, 15 min (Table 33)
[6] = pH modulating agent: Bicarb + acid, 30 min (Table 33)
[7] = pH modulating agent: Bicarbonate, 300 sec (Table 33)
[8] = pH modulating agent: Bicarbonate, 15 min (Table 33)
[9] = pH modulating agent: Bicarbonate, 30 min (Table 33)
[10] = 30 minutes, 30 rpm (increased to 250 rpm after 20 minutes)
[11] = dose (mg) of each drug as in Table 78

Row | Structure (SMILES) | % dissolved in 900 mL 0.0033 N HCl ([1]; 180 sec) | % dissolved in 900 mL 0.0033 N HCl ([1]; 300 sec) | % dissolved in 900 mL 0.0033 N HCl ([1]; 15 minutes) | % dissolved in 900 mL 0.0033 N HCl ([1]; 30 minutes) | % dissolved in 900 mL 0.0033 N HCl ([2]; 180 sec, 30 rpm) | % dissolved in 900 mL 0.0033 N HCl ([2]; 300 sec, 30 rpm) | % dissolved in 900 mL 0.0033 N HCl ([2]; 15 minutes, 30 rpm) | % dissolved in 900 mL 0.0033 N HCl [2, 10] | Volume (mL) of water to dissolve dose (Solubility in water; [11]) | Effect of ↑ pH on solubility (Solubility in water) | also measured
1 | Cc1nnc2n1-c1ccc(Cl)cc1C(c1ccccc1)=NC2 [Alprazolam] | 13% | 20% | 45% | 63% | 61% | 67% | 77% | 100% | 14 mL | – | % drug dissolved in 900 mL 0.0033 N HCl at 0 rpm [1, 4]: 20%; % drug dissolved in 900 mL 0.0033 N HCl at 0 rpm [1, 5]: 45%; % drug dissolved in 900 mL 0.0033 N HCl at 0 rpm [1, 6]: 63%; % drug dissolved in 900 mL 0.0033 N HCl at 0 rpm [1, 7]: 1%; % drug dissolved in 900 mL 0.0033 N HCl at 0 rpm [1, 8]: 4%; % drug dissolved in 900 mL 0.0033 N HCl at 0 rpm [1, 9]: 4%
2 | Cc1ccc(-c2cc(C(F)(F)F)nn2-c2ccc(S(N)(=O)=O)cc2)cc1 [Celecoxib] | – | – | – | – | – | – | – | – | – | ⇄ | solubility (Solubility in water): 3.46 µg/mL (≈ 9.07 µM)
3 | C[C@@H]1C[C@H]2[C@@H]3CCC4=CC(=O)C=C[C@]4(C)[C@@]3(F)[C@@H](O)C[C@]2(C)[C@@]1(O)C(=O)CO [Dexamethasone] | – | – | – | – | – | – | – | – | – | ⇄ | –
4 | O=C(O)Cc1ccccc1Nc1c(Cl)cccc1Cl [Diclofenac potassium] | – | – | – | – | – | – | – | – | – | ↑ | Volume of water (mL) to dissolve dose (Solubility in water; dose per tablet as in label): 7 mL; solubility (Solubility in water): 10000 µg/mL
5 | CN1CCC[C@@H]1Cc1c[nH]c2ccc(CCS(=O)(=O)c3ccccc3)cc12 [Eletriptan hydrochloride, Eletriptan hydrobromide] | 88% | 95% | 98% | 100% | 94% | 96% | 97% | 99% | 4 mL | – | –
6 | Cc1ccc(C)c(OCCCC(C)(C)C(=O)O)c1 [Gemfibrozil] | – | – | – | – | – | – | – | – | – | ↑ | Volume of water (mL) to dissolve dose (Solubility in water; dose per tablet as in label): 20,690 mL; solubility (Solubility in water): 29 µg/mL (≈ 116 µM)
7 | CC(C)Cc1ccc(C(C)C(=O)O)cc1 (stereo not shown) [Ibuprofen] | – | – | – | – | – | – | – | – | – | ↑ | solubility (Solubility in water): 40 µg/mL (≈ 194 µM)
8 | CN(C)C(=O)C(CCN1CCC(O)(c2ccc(Cl)cc2)CC1)(c1ccccc1)c1ccccc1 [Loperamide hydrochloride] | 70% | 72% | 87% | 95% | 82% | 84% | 89% | 100% | – | – | % drug dissolved in 900 mL 0.0033 N HCl at 0 rpm [1, 4]: 72%; % drug dissolved in 900 mL 0.0033 N HCl at 0 rpm [1, 5]: 87%; % drug dissolved in 900 mL 0.0033 N HCl at 0 rpm [1, 6]: 95%; % drug dissolved in 900 mL 0.0033 N HCl at 0 rpm [1, 7]: 27%; % drug dissolved in 900 mL 0.0033 N HCl at 0 rpm [1, 8]: 43%; % drug dissolved in 900 mL 0.0033 N HCl at 0 rpm [1, 9]: 101%; Volume (mL) of water to dissolve dose (Solubility in water): 2 mL
9 | O=C1Nc2ccc(Cl)cc2C(c2ccccc2Cl)=NC1O (stereo not shown) [Lorazepam] | 77% | 85% | 95% | 99% | 77% | 88% | 96% | 100% | – | – | % drug dissolved in 900 mL 0.0033 N HCl at 0 rpm [1, 4]: 85%; % drug dissolved in 900 mL 0.0033 N HCl at 0 rpm [1, 5]: 95%; % drug dissolved in 900 mL 0.0033 N HCl at 0 rpm [1, 6]: 99%; % drug dissolved in 900 mL 0.0033 N HCl at 0 rpm [1, 7]: 6%; % drug dissolved in 900 mL 0.0033 N HCl at 0 rpm [1, 8]: 6%; % drug dissolved in 900 mL 0.0033 N HCl at 0 rpm [1, 9]: 11%
10 | CCN(CC)CCNC(=O)c1cc(Cl)c(N)cc1OC [Metoclopramide hydrochloride] | 26% | 69% | 86% | 91% | 94% | 95% | 97% | 100% | 50 mL | – | % drug dissolved in 900 mL 0.0033 N HCl at 0 rpm [1, 4]: 69%; % drug dissolved in 900 mL 0.0033 N HCl at 0 rpm [1, 5]: 86%; % drug dissolved in 900 mL 0.0033 N HCl at 0 rpm [1, 6]: 91%; % drug dissolved in 900 mL 0.0033 N HCl at 0 rpm [1, 7]: 5%; % drug dissolved in 900 mL 0.0033 N HCl at 0 rpm [1, 8]: 28%; % drug dissolved in 900 mL 0.0033 N HCl at 0 rpm [1, 9]: 46%
11 | Cc1nccn1CC1CCc2c(c3ccccc3n2C)C1=O (stereo not shown) [Ondansetron hydrochloride] | 50% | 65% | 79% | 85% | 88% | 96% | 100% | 100% | 4 mL | – | Solubility in water (Solubility in water): 2.42 mg/mL
12 | CC(=O)Nc1ccc(O)cc1 [Paracetamol] | – | – | – | – | – | – | – | – | – | ⇄ | Volume of water (mL) to dissolve dose (Solubility in water; dose per tablet as in label): 36 mL; water needed for total dissolution of the dose (Solubility in water; doses of Example 33 (tramadol hydrochloride 37.5 mg, paracetamol 325 mg)): around 27 mL; solubility (Solubility in water): ~14000 µg/mL (≈ 92600 µM); AUC ([3]; Magnesium carbonate, dose 150 mg): 1140 ng·h/mL; AUC ([3]; Magnesium carbonate, dose 300 mg): 2010 ng·h/mL; AUC ([3]; Sodium bicarbonate, dose 200 mg): 3810 ng·h/mL; AUC ([3]; Sodium bicarbonate, dose 400 mg): 4760 ng·h/mL; AUC ([3]; Sodium bicarbonate, dose 800 mg): 4400 ng·h/mL; AUC ([3]; Sodium bicarbonate, dose 1200 mg): 2680 ng·h/mL; AUC ([3]; alkaline agent None, dose 0 mg): 1590 ng·h/mL
13 | C[C@]12C=CC(=O)C=C1CC[C@@H]1[C@@H]2[C@@H](O)C[C@@]2(C)[C@H]1CC[C@]2(O)C(=O)CO [Prednisolone] | – | – | – | – | – | – | – | – | – | – | Volume of water (mL) to dissolve dose (Solubility in water; dose per tablet as in label, listed as Prednisolone 5 mg): 23 mL; Volume of water (mL) to dissolve dose (Solubility in water; dose per tablet as in label, listed as Prednisolone 25 mg): 114 mL
14 | CN(C)CCc1c[nH]c2ccc(Cn3cncn3)cc12 [Rizatriptan benzoate] | 94% | – | 100% | 100% | 96% | 96% | 96% | 97% | 0.3 mL | – | Solubility in water (Solubility in water; solubility of the base not salt): 42* mg/mL
15 | CN1C(=O)C(O)N=C(c2ccccc2)c2cc(Cl)ccc21 (stereo not shown) [Temazepam] | – | – | – | – | – | – | – | – | – | – | Volume of water (mL) to dissolve dose (Solubility in water): 83 mL
16 | COc1cccc(C2(O)CCCCC2CN(C)C)c1 (stereo not shown) [Tramadol hydrochloride] | 87% | 95% | 99% | 100% | 100% | 100% | 100% | 100% | – | – | Volume (mL) of water to dissolve dose (Solubility in water): 1.3 mL; water needed for total dissolution of the dose (Solubility in water): around 1 mL; solubility (physchem): ~30000 µg/mL; solubility (physchem; water): ~30000 µg/mL
17 | CN(C)CCc1c[nH]c2ccc(C[C@H]3COC(=O)N3)cc12 [Zolmitriptan] | 66% | 77% | 88% | 96% | 73% | 76% | 86% | 98% | 2 mL | – | –
18 | Cc1ccc(-c2nc3ccc(C)cn3c2CC(=O)N(C)C)cc1 [Zolpidem tartrate] | 77% | 91% | 94% | 96% | 96% | 96% | 97% | 98% | 0.4 mL | – | –

Reference: patent US9757455B2, “Oral therapeutic compound delivery system” (Johnson & Johnson Consumer Inc., priority 2005, dated 2017)
